Experimental data taken from US6479517B1, “Phosphorous-containing benzothiophenes” (Eli Lilly and Company, priority 1995, dated 2002).

Tests used:
ovariectomized rats [1] = assay: Uterine weight in ovariectomized rat post-menopausal model (4-day dosing); format: in vivo; conditions: for Uterine Weight (% increase vs. OVX): OVX Sprague Dawley rats, oral, daily for 4 days
Method: (§1) In the examples illustrating the methods, a post-menopausal model was used in which effects of different treatments upon circulating lipids were determined.
(§2) Seventy-five day old female Sprague Dawley rats (weight range of 200 to 225g) were obtained from Charles River Laboratories (Portage, Mich.). The animals were either bilaterally ovariectomized (OVX) or exposed to a Sham surgical procedure at Charles River Laboratories, and then shipped after one week. Upon arrival, they were housed in metal hanging cages in groups of 3 or 4 per cage and had ad libitum access to food (calcium content approximately 0.5%) and water for one week. Room temperature was maintained at 22.20°±1.7° C. with a minimum relative humidity of 40%. The photoperiod in the room was 12 hours light and 12 hours dark.
(§3) Dosing Regimen Tissue Collection. After a one week acclimation period (therefore, two weeks post-OVX) daily dosing with test compound was initiated. 17α-ethynyl estradiol or the test compound were given orally, unless otherwise stated, as a suspension in 1% carboxymethylcellulose or dissolved in 20% cyclodextrin. Animals were dosed daily for 4 days. Following the dosing regimen, animals were weighed and anesthetized with a ketamine: xylazine (2:1, V:V) mixture and a blood sample was collected by cardiac puncture. The animals were then sacrificed by asphyxiation with CO2, the uterus was removed through a midline incision, and a wet uterine weight was determined.

ovariectomized rats [2] = assay: Serum cholesterol in ovariectomized rat post-menopausal model; format: in vivo; conditions: OVX Sprague Dawley rats, oral, daily for 4 days
Method: as §1, §2, §3
Cholesterol Analysis. Blood samples were allowed to clot at room temperature for 2 hours, and serum was obtained following centrifugation for 10 minutes at 3000 rpm. Serum cholesterol was determined using a Boehringer Mannheim Diagnostics high performance cholesterol assay. Briefly the cholesterol was oxidized to cholest-4-en-3-one and hydrogen peroxide. The hydrogen peroxide was then reacted with phenol and 4-aminophenazone in the presence of peroxidase to produce a p-quinone imine dye, which was read spectrophotemetrically at 500 nm. Cholesterol concentration was then calculated against a standard curve. The entire assay was automated using a Biomek Automated Workstation.

[3] = system: Uterine Eosinophil Peroxidase (EPO); assay: Uterine Eosinophil Peroxidase (EPO) Assay; format: in vivo, rat
Excerpt: as §2, §3
Uterine Eosinophil Peroxidase (EPO) Assay. Uteri were kept at 4° C. until time of enzymatic analysis. The uteri were then homogenized in 50 volumes of 50 mM Tris buffer (pH—8.0) containing 0.005% Triton X-100. Upon addition of 0.01% hydrogen peroxide and 10 mM O-phenylenediamine (final concentrations) in Tris buffer, increase in absorbance was monitored for one minute at 450 nm. The presence of eosonophils in the uterus is an indication of estrogenic activity of a compound. The maximal velocity of a 15 second interval was determined over the initial, linear portion of the reaction curve.

[4] = system: MCF-7 breast adenocarcinoma cells; assay: MCF-7 Proliferation Assay; format: cell-based; conditions: Homo sapiens, MCF7; MCF-7 cells, 48 hours with drug, 4 hours thymidine pulse; read-out: IC50 (MCF-7 proliferation, tritiated thymidine)
Method: MCF-7 breast adenocarcinoma cells (ATCC HTB 22) were maintained in MEM (minimal essential medium, phenol red-free, Sigma, St. Louis, Mo.) supplimented with 10% fetal bovine serum (FBS) (V/V), L-glutamine (2 mM), sodium pyruvate (1 mM), HEPES {(N-[2-hydroxyethyl]piperazine-N′-[2-ethanesulfonic acid]10 mM}, non-essential amino acids and bovine insulin (1 ug/mL) (maintenance medium). Ten days prior to assay, MCF-7 cells were switched to maintenance medium supplemented with 10% dextran coated charcoal stripped fetal bovine serum (DCC-FBS) assay medium) in place of 10% FBS to deplete internal stores of steroids. MCF-7 cells were removed from maintenance flasks using cell dissociation medium (Ca++/Mg++ free HBSS (phenol red-free) supplemented with 10 mM HEPES and 2 mM EDTA). Cells were washed twice with assay medium and adjusted to 80,000 cells/ML. Approximately 100 μL (8,000 cells) were added to flat-bottom microculture wells (Costar 3596) and incubated at 37° C. in a 5% CO2 humidified incubator for 48 hours to allow for cell adherence and equilibration after transfer. Serial dilutions of drugs or DMSO as a diluent control were prepared in assay medium and 50 μL transferred to triplicate microcultures followed by 50 μL assay medium for a final volume of 200 μL. After an additional 48 hours at 37° C. in a 5% CO2 humidified incubator, microcultures were pulsed with tritiated thymidine (1 uCi/well) for 4 hours. Cultures were terminated by freezing at −70° C. for 24 hours followed by thawing and harvesting of microcultures using a Skatron Semiautomatic Cell Harvester. Samples were counted by liquid scintillation using a Wallac BetaPlace β counter. Results in Table 2 below show the ED50 for certain compounds of the present invention.

[5] = system: Uterine Eosinophil Peroxidase (EPO); assay: Uterine Eosinophil Peroxidase (EPO) Assay; format: in vivo, rat; conditions: stromal layer of ovariectomized rats
[6] = OVX Sprague Dawley rats, oral, daily for 4 days, dose 0.01 mg/kg
[7] = OVX Sprague Dawley rats, oral, daily for 4 days, dose 0.1 mg/kg
[8] = OVX Sprague Dawley rats, oral, daily for 4 days, dose 1.0 mg/kg

Uterine EPO (V. max) ([3]; rat, in vivo, po, 0.01 mg/kg)	Uterine EPO (V. max) ([3]; rat, in vivo, po, 0.1 mg/kg)	Uterine EPO (V. max) ([3]; rat, in vivo, po, 1 mg/kg)	SMILES	Uterine Weight (% increase vs. OVX) (ovariectomized rats [1]; dose 0.01 mg/kg)	Uterine Weight (% increase vs. OVX) (ovariectomized rats [1]; dose 0.1 mg/kg)	Uterine Weight (% increase vs. OVX) (ovariectomized rats [1]; dose 1.0 mg/kg)	Serum Cholesterol (% decrease vs. OVX) (ovariectomized rats [2]; dose 0.01 mg/kg)	Serum Cholesterol (% decrease vs. OVX) (ovariectomized rats [2]; dose 0.1 mg/kg)	Serum Cholesterol (% decrease vs. OVX) (ovariectomized rats [2]; dose 1.0 mg/kg)	Uterine EPO (V. max) [3, 6]	Uterine EPO (V. max) [3, 7]	Uterine EPO (V. max) [3, 8]	IC50 [4]	Effect on uterine weight (in words) (ovariectomized rats [1]; compared to ovariectomized test animals, EE2 orally at 0.1 mg/kg/day)	Eosinophil infiltration into the uterus (in words) [5]
			CCOP(=O)(OCC)Oc1ccc(-c2sc3cc(OP(=O)(OCC)OCC)ccc3c2C(=O)c2ccc(OCCN3CCCCC3)cc2)cc1.Cl [Example 1]	51.5%	25.2%	37.0%	24.3%	41.1%	17.4%	0.68	6.5	5.8	1 nM		
2.2	4.3	3.9	Cl.O=C(c1ccc(OCCN2CCCCC2)cc1)c1c(-c2ccc(O)cc2)sc2cc(O)ccc12 [Raloxifene, 6-hydroxy-2-(4-hydroxyphenyl)-3-[4-(2-piperidinoethoxy)benzoyl]benzo[b]thiophene, hydrochloride, reference compound]				65%	75.6%	71.1%						
			Cl.O=C(c1ccc(OCCN2CCCCC2)cc1)c1c(-c2ccc(OP(=O)(Oc3ccccc3)Oc3ccccc3)cc2)sc2cc(OP(=O)(Oc3ccccc3)Oc3ccccc3)ccc12 [Example 2]	17.4%	12.4%	31.4%	−48.2%	15.6%	55.2%	4	9.8	5.6	10 nM		
			C#C[C@]1(O)CC[C@H]2[C@@H]3CCc4cc(O)ccc4[C@H]3CC[C@@]21C [EE2, 17α-ethynyl estradiol, reference compound]		171.5%			85.9%			109.3			substantially greater than the uterine weight of ovariectomized test animals	substantial, expected increase in eosinophil infiltration
			Cl.O=C(c1ccc(OCCN2CCCCC2)cc1)c1c(-c2ccc(OP(=O)(c3ccccc3)c3ccccc3)cc2)sc2cc(OP(=O)(c3ccccc3)c3ccccc3)ccc12 [Example 3]	22.5%	47.1%	24.7%	−25%	37.6%	57.5%	3.7	7	6.7	1 nM		
